Where two headings read alike, the source gives them in different places.
Columns and labels:
[1] = in vitro; cited from earlier work
[2] = target: CD4 receptor (Homo sapiens, UniProt P01730); settings: in vitro; cited from earlier work
[3] = system: R5 and dual-tropic (R5/X4) HIV-1 strains; settings: monocyte-derived macrophages (MDMs), microglia, primary CD4(+) T cells; cited from earlier work
[4] = system: Balb/c mice; settings: i.p. 0.5 mg per immunization, day 0, 8 and 21, Freund's adjuvant, antiserum 1:100, FIG. 15
Protocol: Balb/c mice were immunized intraperitoneally with succinic acid-(glu)n-Peptide T at 0.5 mg per immunization and per animal. The antigen complex was administered with complete Freund's adjuvant (first injection) and with incomplete Freund's adjuvant for booster injections. Mice were immunized 3 times at day 0, day 8 and day 21. Mice were bled via tail vein and 15 μl of blood collected by a capillary tube was transferred into 135 μl PBS in a 12×75 tissue culture tube. Diluted mouse sera were collected after centrifugation for 10 min.
A polystyrene 96-well plate (Nunc) was coated with free peptide T at 10 μg/ml in coating (pH 9.6) overnight at 4° C. The plate was washed 3 times with wash buffer. Afterwards, 100 μl of diluted (1:100 in assay diluent) mouse antiserum from each mouse was then added to each well (each serum sample was assayed in duplicate) and incubated for 2 hours at room temperature. The plates were then washed 5 times with wash buffer. Goat anti-mouse IgG conjugated to alkaline phosphate (KPL) was diluted 1:1000 in PBS with 1% bovine serum albumin, added to the wells, and incubated for 30 min at room temperature followed by six washes with wash buffer. Substrate solution (p-Nitrophenyl phosphate, 2 mg/ml in substrate buffer) was then added. Absorbance was then measured using a microplate reader at 405 nm.

[5] = system: rabbit anti peptide T antiserum; settings: compared with the other fractions of the same adduct, FIG. 14
Protocol: HPLC fractions of succinic acid-(Glu)n conjugated to peptide T were analyzed by ELISA (i.e., enzyme linked immunosorbent assay). HPLC fractions of conjugated peptide T were diluted (1:10) in coating buffer [1.59 g sodium carbonate (Na2CO3), 2.93 g sodium bicarbonate (NaHCO3) Dissolve in 900 ml H2O, adjust pH to 9.6 with HCl and make up to 1 L]. Control net peptide T was dissolved in coating buffer with a concentration of 5 μg/ml. 100 μl of each of two peptide T preparations was added to each well of a 96-well microtiter plate (Nunc). The plate was covered with a plate sealer and incubated at 4° C. over night. Following 3 washes with PBS-Tween [phosphate buffer saline: 8.0 g sodium chloride (NaCl), 0.2 g monobasic potassium phosphate (KH2PO4), 1.15 g dibasic sodium phosphate (Na2HPO4), 0.2 g potassium chloride (KCl), Dissolve in 900 ml H2O, adjust pH to 7.4 with NaOH or HCl and make up to 1 L, PBS+0.5 ml Tween 20 per liter]. 100 μl of diluted rabbit anti peptide T antiserum (1:250, in assay diluent, 0.1% BSA and 0.1% sodium azide (NaN3) in PBS) was added to each well. The plate was sealed and incubated for 1 hour at room temperature. Following 5 washes, each well was added with 100 μl of diluted goat anti rabbit IgG alkaline phosphatase conjugate (KPL, 1:1000 dilution in assay diluent). The plate was sealed and incubated for 30 min. […] Optical density (OD) was then read at 405 nm.

D-Ala-Ser-Thr-Thr-Thr-Asn-Tyr-Thr-NH2 [Peptide T]
chemotactic activity [1]: chemotactic activity
binding of isolated gp120 and HIV-1 to the CD4 receptor [2]: inhibition of the binding
replication of HIV-1 strains [3]: inhibits replication

Succinic Acid-(Glu)2-(Glu)4-(Glu)8-(Peptide T)16 [Shell 3]
immune response (anti-peptide T antibodies, ELISA OD at 405 nm) [4]: some mice show greater immune response
immunoreactivity (optical density at 405 nm) ([5]; HPLC Fraction 3 (highest retention time)): highest immunoreactivity

Succinic Acid-(Glu)2-(Glu)4-(Peptide T)8 [Shell 2]
immune response (anti-peptide T antibodies, ELISA OD at 405 nm) [4]: some mice show greater immune response
immunoreactivity (optical density at 405 nm) ([5]; HPLC Fraction 2 (highest retention time)): highest immunoreactivity
